Test results published in patent US20250161244A1 (UNION HOSPITAL, TONGJI MEDICAL COLLEGE, HUAZHONG UNI. OF …, priority 2023, published 2025).

Tested on: LX-2 cells (human HSCs)
Assay: CCK8 experiment, proliferation of LX-2 cells
Type: cell-based
Details: 48 h incubation, CCK-8; tested at 2.5 μM and 5 μM

## CC1=C(/C=C/C(C)=C/C=C/C(C)=C/CO)C(C)(C)CCC1 [VA, vitamin A]
  inhibitory effect on LX-2 cells proliferation: no inhibitory effect
